Results on 86 compounds are retold here after a melting point compilation (Tetko et al.; mined from patent text by program, amines drawn as free bases though some values may be those of a salt).

Bounds are passed on as bounds.

Take `O=c1c2cccc(F)c2nc2sccn12`: the melting point (usually the temperature, or range, at which the solid turns liquid) was in the range of 187 to 189 °C. For the compound `Nc1cccc(-c2ccc(-c3cccc(CN4CC5C(N)C5C4)c3)cc2)n1` (stereo unspecified), the melting point lay in the range of 184 to 196 °C. `BrCc1ccc2ocnc2c1`: the melting point fell in the range of 90 to 93 °C.

`CCCCCCCCCC(C)(C)c1cc(C(=O)Sc2ccc(C(=O)O)cc2)ccc1OC`: the melting point is 186 to 187 °C. `CC(C)c1ccc(NC(=O)NCCc2ccccn2)cc1` registered a melting point of 72 to 73 °C.

`NS(=O)(=O)c1ccc(CCN2CC=C(c3c[nH]c(-c4ccc(F)cc4)c3-c3ccncc3)CC2)cc1` yielded a melting point of 220 to 221 °C. As to `CN(C)c1c(-c2ccc(Cl)cc2)sc2ccccc12`, the melting point lay in the range of 81 to 83 °C.

`O=C(CCC1CCCC1)Nc1ccc(NC(=O)CCC2CCCC2)c2c1C(=O)c1ccccc1C2=O` had a melting point of 166 to 167 °C. For `CCCCC(=N)NC(=O)Nc1ccc(OC)cc1`, the melting point is 144 to 145 °C. In turn, `CCOC(=O)/C(=N/OC)c1ccc(OCCOc2ccc3ccccc3c2)s1` registered a melting point of 132 to 134 °C. Compound `C#CCOC(=O)C1=C(C)NC(C)=C(C(=O)OC)C1c1ccccc1C(F)(F)F` (stereo unspecified) registered a melting point of 115 °C. `COC(=O)c1ccccc1S(=O)(=O)NC(=O)Nc1nc(Cl)c(C)c(OC)n1` gave a melting point of 204 to 205 °C. Regarding `CC(C)Oc1cc(-n2c(=O)c3c(n(C)c2=O)CCC3)c(F)cc1Cl`, the melting point lay within 105 to 107 °C. In the case of `CCOC(=O)C(NC(=O)c1cnc2cccc(C)n2c1=O)C(C)C` (stereo unspecified), the melting point worked out at 136 °C. In turn, `O=C(O)c1ccc2sc3ccccc3c2c1` displayed a melting point of 281 to 283 °C. For `O=C(c1ccc(OC2CCCCC2N2CCCC2)c(F)c1)c1c(-c2ccc(OCCN3CCCC3)cc2)sc2cc(OCc3ccccc3)ccc12` (stereo unspecified), the melting point is 47 to 51 °C. As to `COCCOc1cc(NS(=O)(=O)c2ccccn2)c2[nH]c(C3=NCC(CN4CCS(=O)CC4)S3)cc2c1` (stereo unspecified), the melting point was in the range of 235 to 236 °C. As for `COC(=O)c1cn(Cc2ccc(OCc3nc(-c4ccccc4)oc3C)cc2)nc1C(C)C`, the melting point lay in the range of 90 to 91 °C. With `CNc1c(F)cc2c(=O)c(C(=O)O)cn(-c3cc(N)c(F)cc3Br)c2c1Cl`, the melting point is above 280 °C. Turning to `CC(=O)Nc1ccc(C#Cc2ccc(OC3CN4CCC3CC4)nn2)cc1` (stereo unspecified), the melting point was 170 to 175 °C. Consider `CC(C)Cc1ccc(C(C)C(N)=O)cc1` (stereo unspecified), for which the melting point was 84 to 86 °C. Then `CSc1nn2c(O)cc(C)nc2c1S(=O)(=O)c1ccccc1`, with above 220 °C.

For the compound `O=C1c2ccccc2-c2c1nc(Cl)c1ccccc21`, the melting point fell in the range of 242 to 244 °C. Turning to `Fc1cccc(F)c1C1=NC(c2ccc(-c3ccc(OCc4ccc(C(F)(F)F)cc4)cc3)cc2)CO1` (stereo unspecified), the melting point amounted to 166 °C.

`Cc1ccccc1-c1c(NC(=O)Nc2c(C)cccc2C)c(=O)oc2c(F)cc(F)cc12` returned a melting point of 221 to 222 °C. For `CC(C)CN1CCS(=O)(=O)c2sc(S(N)(=O)=O)cc2C1`, the melting point lay within 149 to 151 °C. Regarding `COc1ccc(-c2[nH]nc3c2C(=O)c2c(NC(=O)NNC(=O)c4cccc(N)c4)cccc2-3)cc1`, the melting point turned out to be 250 °C. On to `CCOC(=O)Cn1c2c(c3cc(Cl)c(Cl)cc31)CCN(C(=O)OC(C)(C)C)CC2`, for which the melting point lay in the range of 138 to 140 °C. Then `CNC(=O)C(=O)c1cc(Cl)cc(C)c1NC(=O)c1cc(Br)nn1-c1ncccc1Cl`, with 246 to 247 °C; and `COc1cc2c(c(OC)c1)C(=O)CCC2`, with 58 to 61 °C.

`CN(C)C1CC2=CNC=C3C=C(C(N)=O)OCC1=C32` (stereo unspecified) gave a melting point of 182 to 183 °C. The compound `COc1cc(C(C)=O)ccc1OCCN1CCC(C(O)(c2ccc(F)cc2)c2ccc(F)cc2)CC1` registered a melting point of 131 to 135 °C. `O=C(NC1CCCCC1)ON1C(=O)CCC1=O`: the melting point was 158 to 160 °C. Compound `Cc1ccc(-n2nc3c(cc2=O)CCCc2sc(C=O)cc2-3)cc1` returned a melting point of 127 to 129 °C. For the compound `COc1cc(C)nc(NC(=O)NS(=O)(=O)c2cccc3c2NC(C)C3)n1` (stereo unspecified), the melting point fell in the range of 175 to 177 °C. To `CC1=C2CCN(CCC(N)=O)CC2c2ccccc21` (stereo unspecified) belongs 169 to 170 °C; to `CCC(=O)Nc1c(C(=O)c2cccc(C)c2)[nH]c2cc(Cl)ccc12`, 152 to 155 °C. As for `N#CC(C(=O)C(F)(F)F)c1cccc(Cl)c1Cl` (stereo unspecified), the melting point fell in the range of 74 to 75 °C. To `OCc1c(Cl)cc(Cl)c2ccc(Cl)cc12` belongs 107 to 112 °C; to `CC(C)c1cc2c(c(C(C)C)c1)Oc1ccc(C(N)=O)cc1N(CCN(C)C)C2=O`, 223 to 225 °C.

The compound `CNC(=NCCSCc1[nH]cnc1C)NS(C)(=O)=O` had a melting point of 133 to 134 °C.

The compound `CCOc1ccc(-c2nc(OC)ccc2N2CCN(c3ccc(OC)cc3)CC2)cc1` showed a melting point of 125 to 128 °C.

In turn, `Cc1ccccc1CC(Cc1ccccc1C)C(=O)O` displayed a melting point of 94 to 96 °C.

The compound `COc1c2c(c(OC)c(OC)c1OC)CC(CCCCCCC1Cc3c(c(OC)c(OC)c(OC)c3OC)C1)C2` returned a melting point of 100 to 108 °C. In the case of `COc1c(F)c(Oc2cc(C(F)(F)F)nn2C)nc(Oc2cc(C(F)(F)F)nn2C)c1F`, the melting point came to 83 °C.

`O=Cc1c(O)cccc1OCc1ccccc1C(=O)O` displayed a melting point of 218 to 220 °C. Take `CCc1c([N+](=O)[O-])c(C(N)=O)nn1C[C@@H]1CCCN1C(=O)OC(C)(C)C`: the melting point lay in the range of 68 to 75 °C. `Cc1cccc2cc3c(=O)n(CC(F)(F)F)cc(C(=O)NCCN(C)C)c3nc12` returned a melting point of 227 to 230 °C.

`O=C(CCl)Nc1ccc(OCc2nc3ccccc3s2)cc1`: the melting point is 196 to 197 °C. In turn, `CC(=O)OCc1nccc2[nH]c(=O)ccc12` returned a melting point of 162 to 165 °C. Then `COc1cc2c(cc1O)CN(C(=O)OC(C)(C)C)CC2`, with 80 to 83 °C. As for `O=C(Nc1cnc2c(c1)OCCN2)c1cc2cc(F)ccc2n1Cc1cccc(F)c1`, the melting point lay within 265 to 266 °C. Then `c1ccc(N(c2ccccc2)c2ccc(-c3ccc(-c4ccnc(C5Cc6ccccc6N5)n4)cc3)cc2)cc1` (stereo unspecified), with 247 to 248 °C; and `C[C@]1(N2C(=O)c3cccc(Nc4ccc5c(c4)CCC5)c3C2=O)CCC(=O)NC1=O`, with 200 to 202 °C. Then `OCc1nc2cc(Br)cnc2[nH]1`, with 230 to 233 °C; and `Nc1cc(O)c(Cn2nc(-c3ccc(C(F)(F)F)cc3)oc2=O)cc1Cl`, with 210 to 212 °C. `CCn1c(-c2ccc3c(c2)OCCO3)cc(=Nc2c(C)cc(C)cc2C)n(C)c1=O`: the melting point lay within 75 to 82 °C. The compound `C[Si](C)(O)O[Si](C)(C)c1ccc(OC(=O)Oc2ccc([Si](C)(C)O[Si](C)(C)O)cc2)cc1` returned a melting point of 62 to 63 °C. Consider `CCSc1c(C#N)nn(-c2c(Cl)cc(C(F)(F)F)cc2Cl)c1Br`, for which the melting point is 134 to 140 °C.

Regarding `COc1cc(OC)cc(C(Cc2ccc(OC)c(OC)c2)=NNS(=O)(=O)c2ccc(C)cc2)c1`, the melting point is 132 to 133 °C. Compound `CCN(CC)C(=O)NC1CC2c3cccc4[nH]cc(c34)CC2N(C)C1` (stereo unspecified) returned a melting point of 171 to 173 °C.

As for `CC(CN1C(C)CCC1C)N1c2ccccc2Sc2ccc(C#N)cc21` (mixture of isomers), the melting point amounted to 105 °C. In the case of `CCCCCCCCCCCCCCCCC[C@@H]1OC[C@@H](COCCCCCCCCOS(=O)(=O)c2ccc(C)cc2)O1` (relative stereo), the melting point fell in the range of 45.9 to 50.8 °C. To `CCOC(=O)c1cc(C(=O)CBr)[nH]n1` belongs 174 to 176 °C; to `CCOc1ccc(-c2ccc(Cl)nn2)c(OCC(O)CNC(C)(C)C)c1` (stereo unspecified), 115 to 117 °C; to `Cc1cc(C)cc(-c2nc(NC(=O)Cc3ccccc3)sc2-c2ccncc2)c1`, 226 to 229 °C. `CCCCCCC(C(=O)N1CC(O)CC1C(=O)O)n1cnc2cc(-c3ccccc3-c3nn[nH]n3)ccc21` (stereo unspecified) gave a melting point of 155 to 160 °C.

In turn, `O=[N+]([O-])c1cc(CSC2OC(CO)C(OC3OC4COC(c5ccccc5)OC4C(O)C3O)C(O)C2O)ccc1Cl` (stereo unspecified) registered a melting point of 120 to 122 °C. `NNC(=O)CCSCCOC1OC(CO)C(O)C(O)C1O` (stereo unspecified): the melting point is 178 to 179 °C. As to `CCCCCCC/C=C\CCCCCCCC(O)CCCNC(C)=O` (stereo unspecified), the melting point is 50 to 52 °C.

`CC(=CC(=O)c1cccs1)N1CCCC1` showed a melting point of 154 to 156 °C.

On to `CN(C)c1ccc(NC(=O)NC2CCCC2)c(C(=O)NCC2CCN(C(c3ccccc3)c3ccccc3)CC2)c1`, for which the melting point fell in the range of 211 to 213 °C. Compound `CC(=O)c1c(-c2ccc(F)cc2)nn(CC2CC2)c(=O)c1Nc1cccc2cccnc12` yielded a melting point of 150 to 151 °C.

Compound `O=C(O)Cc1ccc2c(c1)CCc1ccccc1C2=O` registered a melting point of 154 °C.

For the compound `Cn1c(-c2ccc(F)cc2)cc(=O)c(C(=O)O)c1-c1ccc(F)cc1`, the melting point was 191 to 193 °C.

`CN1CCC(=C2c3ccccc3C(CO)=C(CO)c3ccccc32)CC1` gave a melting point of 204 to 205 °C. In the case of `CCOC(=O)N[C@@H]1CCc2ccccc2[C@H]1Nc1ccccc1CO` (relative stereo), the melting point lay in the range of 134 to 135 °C.

For `Cn1c(=O)c(-c2ccc(Cl)cc2Cl)cc2c3cc(-c4cnco4)ccc3n(C)c21`, the melting point is 170 to 174 °C.

As for `CCC(O)(c1ccc(OCc2ccccc2)cc1)c1cccc(C(F)(F)F)c1` (stereo unspecified), the melting point fell in the range of 50 to 51 °C.

On to `O=[N+]([O-])c1cc2c(c([N+](=O)[O-])c1)NCC2`, for which the melting point is 244 to 245 °C. Then `O=C(NC=CC1CC2C=CC1C2)n1cc(F)c(=O)[nH]c1=O` (stereo unspecified), with 130 to 132 °C.

For the compound `Cc1nn(C)c(OCC(=O)c2ccccc2)c1C(=O)c1ccc(Cl)c(C)c1Cl`, the melting point lay within 150 to 152 °C. `CCOC(=O)c1cn(NC=O)c2nc(C)ccc2c1=O` showed a melting point of 214 °C. Then `CCCCC(CC)COC(=O)C(=Cc1ccc(-c2nc3ccccc3o2)cc1)C(=O)CC` (stereo unspecified), with 82 to 83 °C. The compound `CC(=O)C1=Nc2cc3c(c(C)c2=C1C)N=c1ccccc1=3` returned a melting point of 258 to 260 °C. The compound `CC=CC(=O)CS(=O)(=O)C(c1ccc(Cl)cc1)c1ccc(Cl)cc1` had a melting point of 114 to 116 °C.
